Measurements taken from patent publication US8192962B2, “Processes for detecting toxic substances” (Daikin Industries, Ltd., priority 2001, dated 2012).

Tested on: Stress protein genes
Assay: DNA chip mRNA expression in yeast, stress protein genes (Table 6)
Type: cell-based, Saccharomyces cerevisiae S288C
How it was run: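 Chemical exposure: 2 h, log-phase S. cerevisiae S288C, YPD, 25° C., dose set to inhibit growth without death. Profiling: mRNA labeled by reverse transcription with Cy3- or Cy5-dUTP, hybridized to whole-genome array. Output: fluorescence ratio against untreated culture.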

S=C([S-])NCCNC(=S)[S-].[Zn+2] [(11), zinc N,N′-ethylenebis(dithiocarbamate)]
The level of expressed mRNA in the presence of chemical substance/The level of expressed mRNA in the absence of chemical substance (yeast gene YIL033C): 1.8
The level of expressed mRNA in the presence of chemical substance/The level of expressed mRNA in the absence of chemical substance (yeast gene YIR037W): 3.0
The level of expressed mRNA in the presence of chemical substance/The level of expressed mRNA in the absence of chemical substance (yeast gene YIR038C): 3.4
The level of expressed mRNA in the presence of chemical substance/The level of expressed mRNA in the absence of chemical substance (yeast gene YJL128C): 0.6
The level of expressed mRNA in the presence of chemical substance/The level of expressed mRNA in the absence of chemical substance (yeast gene YJL158C): 1.9
The level of expressed mRNA in the presence of chemical substance/The level of expressed mRNA in the absence of chemical substance (yeast gene YJL159W): 1.2
The level of expressed mRNA in the presence of chemical substance/The level of expressed mRNA in the absence of chemical substance (yeast gene YJL165C): 1.7
The level of expressed mRNA in the presence of chemical substance/The level of expressed mRNA in the absence of chemical substance (yeast gene YJR045C): 1.4
The level of expressed mRNA in the presence of chemical substance/The level of expressed mRNA in the absence of chemical substance (yeast gene YJR090C): 0.4
The level of expressed mRNA in the presence of chemical substance/The level of expressed mRNA in the absence of chemical substance (yeast gene YKL161C): 3.1
The level of expressed mRNA in the presence of chemical substance/The level of expressed mRNA in the absence of chemical substance (yeast gene YKL163W): 1.3
The level of expressed mRNA in the presence of chemical substance/The level of expressed mRNA in the absence of chemical substance (yeast gene YKL164C): 1.0
The level of expressed mRNA in the presence of chemical substance/The level of expressed mRNA in the absence of chemical substance (yeast gene YKL210W): 1.4
The level of expressed mRNA in the presence of chemical substance/The level of expressed mRNA in the absence of chemical substance (yeast gene YKR053C): 0.5
The level of expressed mRNA in the presence of chemical substance/The level of expressed mRNA in the absence of chemical substance (yeast gene YLL024C): 1.6
The level of expressed mRNA in the presence of chemical substance/The level of expressed mRNA in the absence of chemical substance (yeast gene YLL026W): 1.7
The level of expressed mRNA in the presence of chemical substance/The level of expressed mRNA in the absence of chemical substance (yeast gene YLL039C): 1.1
The level of expressed mRNA in the presence of chemical substance/The level of expressed mRNA in the absence of chemical substance (yeast gene YLL060C): 14.1
The level of expressed mRNA in the presence of chemical substance/The level of expressed mRNA in the absence of chemical substance (yeast gene YLR006C): 1.5
The level of expressed mRNA in the presence of chemical substance/The level of expressed mRNA in the absence of chemical substance (yeast gene YLR109W): 1.5
The level of expressed mRNA in the presence of chemical substance/The level of expressed mRNA in the absence of chemical substance (yeast gene YLR259C): 3.0
The level of expressed mRNA in the presence of chemical substance/The level of expressed mRNA in the absence of chemical substance (yeast gene YML007W): 1.3
The level of expressed mRNA in the presence of chemical substance/The level of expressed mRNA in the absence of chemical substance (yeast gene YML070W): 1.5
The level of expressed mRNA in the presence of chemical substance/The level of expressed mRNA in the absence of chemical substance (yeast gene YMR021C): 0.9
The level of expressed mRNA in the presence of chemical substance/The level of expressed mRNA in the absence of chemical substance (yeast gene YMR173W): 3.2
The level of expressed mRNA in the presence of chemical substance/The level of expressed mRNA in the absence of chemical substance (yeast gene YMR186W): 1.1
The level of expressed mRNA in the presence of chemical substance/The level of expressed mRNA in the absence of chemical substance (yeast gene YNL064C): 0.9
The level of expressed mRNA in the presence of chemical substance/The level of expressed mRNA in the absence of chemical substance (yeast gene YNL160W): 5.4
The level of expressed mRNA in the presence of chemical substance/The level of expressed mRNA in the absence of chemical substance (yeast gene YNL241C): 3.0
The level of expressed mRNA in the presence of chemical substance/The level of expressed mRNA in the absence of chemical substance (yeast gene YNR076W): 1.4
The level of expressed mRNA in the presence of chemical substance/The level of expressed mRNA in the absence of chemical substance (yeast gene YOL064C): 1.0
The level of expressed mRNA in the presence of chemical substance/The level of expressed mRNA in the absence of chemical substance (yeast gene YOL161C): 1.5
The level of expressed mRNA in the presence of chemical substance/The level of expressed mRNA in the absence of chemical substance (yeast gene YOR008C): 1.0
The level of expressed mRNA in the presence of chemical substance/The level of expressed mRNA in the absence of chemical substance (yeast gene YOR009W): 1.4
The level of expressed mRNA in the presence of chemical substance/The level of expressed mRNA in the absence of chemical substance (yeast gene YOR010C): 1.2
The level of expressed mRNA in the presence of chemical substance/The level of expressed mRNA in the absence of chemical substance (yeast gene YOR027W): 1.3
The level of expressed mRNA in the presence of chemical substance/The level of expressed mRNA in the absence of chemical substance (yeast gene YOR208W): 1.2
The level of expressed mRNA in the presence of chemical substance/The level of expressed mRNA in the absence of chemical substance (yeast gene YPL059W): 1.6
The level of expressed mRNA in the presence of chemical substance/The level of expressed mRNA in the absence of chemical substance (yeast gene YPL106C): 1.3
The level of expressed mRNA in the presence of chemical substance/The level of expressed mRNA in the absence of chemical substance (yeast gene YPL140C): 0.8
The level of expressed mRNA in the presence of chemical substance/The level of expressed mRNA in the absence of chemical substance (yeast gene YPL194W): 0.9
The level of expressed mRNA in the presence of chemical substance/The level of expressed mRNA in the absence of chemical substance (yeast gene YPL223C): 1.8
The level of expressed mRNA in the presence of chemical substance/The level of expressed mRNA in the absence of chemical substance (yeast gene YPL240C): 1.0
The level of expressed mRNA in the presence of chemical substance/The level of expressed mRNA in the absence of chemical substance (yeast gene YPR005C): 0.4
The level of expressed mRNA in the presence of chemical substance/The level of expressed mRNA in the absence of chemical substance (yeast gene YPR026W): 1.6
